Reference: US6369225B1, “Compounds having activity as inhibitors of cytochrome P450RAI” (Allergan Sales, Inc., priority 2000, dated 2002)

Experiments:
P450RAI-1 = biological target: T1, P450RAI-1 (Homo sapiens, UniProt O43174); test: P450RAI-1 cell-based inhibitor assay; details: P450RAI-1 stably transfected HeLa cells, [3H]-RA metabolism, 3 hours at 37° C.; read-out: P450RAI INHIBITION DATA INTACT HELA IC50
T1 construct: expressed in transfected cells; host or cells: HeLa cells, stably transfected, hygromycin selection
T1 sequence (O43174 1-497): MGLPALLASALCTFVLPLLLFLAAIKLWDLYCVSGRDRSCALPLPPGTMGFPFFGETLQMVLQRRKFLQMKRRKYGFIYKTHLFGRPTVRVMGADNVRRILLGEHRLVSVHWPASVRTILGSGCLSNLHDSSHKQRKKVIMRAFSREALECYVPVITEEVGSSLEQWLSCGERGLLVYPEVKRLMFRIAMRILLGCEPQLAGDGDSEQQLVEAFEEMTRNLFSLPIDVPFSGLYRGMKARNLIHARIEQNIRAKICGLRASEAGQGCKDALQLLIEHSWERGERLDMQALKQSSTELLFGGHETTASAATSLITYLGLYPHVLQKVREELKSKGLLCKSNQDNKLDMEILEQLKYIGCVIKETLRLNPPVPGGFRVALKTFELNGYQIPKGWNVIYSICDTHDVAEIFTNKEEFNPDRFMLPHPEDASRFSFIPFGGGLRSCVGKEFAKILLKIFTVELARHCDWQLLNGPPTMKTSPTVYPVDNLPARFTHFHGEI
Method: P450RAI-1 stably transfected HeLa cells are maintained in […] tissue culture dishes in Modified Eagle's Medium (MEM) containing 10% Fetal Bovine Serum (FBS) and 100 μg/ml hygromycin. Exponentially growing cells are harvested by incubating in trypsin. Cells are then washed with 1× Phosphate Buffered Saline (PBS) and plated in a 48-well plate at 5×10^5 cells in 0.2 ml MEM medium containing 10% FBS and 0.05 μCi[^3H]-RA in the presence or absence of increasing concentrations of the test compounds. The compounds are diluted in 100% DMSO and then added in triplicate wells at either 10, 1 or 0.1 μM final concentration. As a positive control for RA metabolism inhibition, cells are also incubated with ketoconazole at 100, 10 and 1 μM. Cell are incubated for 3 hours at 37° C. […] The water soluble radioactivity is quantified using a β-scintillation counter. IC50 values represent the concentration of inhibitor required to inhibit all-trans-RA metabolism by 50 percent and are derived manually from log-transformed data.

RARγ = biological target: T2, RARγ (Homo sapiens, UniProt P13631); test: ligand binding assay, RARγ; details: Kd line of EC50/(EFFICACY)/Kd, read-out: RAR Kd γ
T2 sequence (P13631 1-454): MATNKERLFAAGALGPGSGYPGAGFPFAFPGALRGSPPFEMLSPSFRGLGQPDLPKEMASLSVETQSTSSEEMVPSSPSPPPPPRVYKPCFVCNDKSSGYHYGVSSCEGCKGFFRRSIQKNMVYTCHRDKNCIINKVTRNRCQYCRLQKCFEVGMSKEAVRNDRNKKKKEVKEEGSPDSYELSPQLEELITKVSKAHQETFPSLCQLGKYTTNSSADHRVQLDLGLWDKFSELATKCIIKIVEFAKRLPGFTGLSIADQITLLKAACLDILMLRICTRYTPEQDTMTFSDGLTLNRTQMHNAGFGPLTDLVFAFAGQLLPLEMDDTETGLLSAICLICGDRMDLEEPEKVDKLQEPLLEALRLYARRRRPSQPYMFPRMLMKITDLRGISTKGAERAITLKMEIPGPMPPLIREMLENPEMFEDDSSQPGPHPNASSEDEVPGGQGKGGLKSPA
Source text: (§1) Assays described below measure the ability of a compound to bind to, and/or activate various retinoid receptor subtypes. When in these assays a compound binds to a given receptor subtype and activates the transcription of a reporter gene through that subtype, then the compound is considered an agonist of that receptor subtype. […] In the below described assays the ability of the compounds to bind to RARα, RARβ, RARγ, RXRα, RXRβ and RXRγ receptors, and the ability or inability of the compounds to activate transcription of a reporter gene through these receptor subtypes can be tested.
(§2) A holoreceptor transactivation assay and a ligand binding assay which measure the antagonist/agonist like activity of the compounds of the invention, or their ability to bind to the several retinoid receptor subtypes, respectively, are described in published PCT Application No. WO WO93/11755 (particularly on pages 30-33 and 37-41) published on Jun. 24, 1993, the specification of which is also incorporated herein by reference. A detailed experimental procedure for holoreceptor transactivations has been described by Heyman et al. Cell 68, 397-406, (1992); Allegretto et al. J. Biol. Chem. 268, 26625-26633, and Mangelsdorf et al. The Retinoids: Biology, Chemistry and Medicine, pp 319-349, Raven Press Ltd., New York, which are expressly incorporated herein by reference. The results obtained in this assay are expressed in EC50 numbers, as they are also in the chimeric receptor transactivation assay. The results of ligand binding assay are expressed in Kd numbers. (See Cheng et al. Biochemical Pharmacology Vol. 22 pp 3099-3108, expressly incorporated herein by reference.)
(§3) The results if the ligand binding assay for several preferred compounds of the invention are included in Table 1.

RARα = biological target: T3, RARα (Homo sapiens, UniProt P10276); test: ligand binding assay, RARα; details: Kd line of EC50/(EFFICACY)/Kd, read-out: RAR Kd α
T3 sequence (P10276 1-462): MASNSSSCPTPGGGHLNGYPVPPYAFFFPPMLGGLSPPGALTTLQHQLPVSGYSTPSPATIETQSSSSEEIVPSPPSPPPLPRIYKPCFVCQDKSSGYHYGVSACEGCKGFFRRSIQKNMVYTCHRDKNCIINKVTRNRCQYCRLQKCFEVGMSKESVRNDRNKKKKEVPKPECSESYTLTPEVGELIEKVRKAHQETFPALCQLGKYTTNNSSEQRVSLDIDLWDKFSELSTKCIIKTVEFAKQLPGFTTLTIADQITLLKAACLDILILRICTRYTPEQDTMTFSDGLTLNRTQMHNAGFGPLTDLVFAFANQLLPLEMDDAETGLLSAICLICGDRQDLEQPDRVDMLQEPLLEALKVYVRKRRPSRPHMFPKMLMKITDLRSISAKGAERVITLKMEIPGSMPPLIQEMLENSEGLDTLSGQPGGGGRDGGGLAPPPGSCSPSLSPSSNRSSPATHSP
Source text: as §1, §2, §3

RARβ = biological target: T4, RARβ (Homo sapiens, UniProt P10826); test: ligand binding assay, RARβ; details: Kd line of EC50/(EFFICACY)/Kd, read-out: RAR Kd β
T4 sequence (P10826 1-455): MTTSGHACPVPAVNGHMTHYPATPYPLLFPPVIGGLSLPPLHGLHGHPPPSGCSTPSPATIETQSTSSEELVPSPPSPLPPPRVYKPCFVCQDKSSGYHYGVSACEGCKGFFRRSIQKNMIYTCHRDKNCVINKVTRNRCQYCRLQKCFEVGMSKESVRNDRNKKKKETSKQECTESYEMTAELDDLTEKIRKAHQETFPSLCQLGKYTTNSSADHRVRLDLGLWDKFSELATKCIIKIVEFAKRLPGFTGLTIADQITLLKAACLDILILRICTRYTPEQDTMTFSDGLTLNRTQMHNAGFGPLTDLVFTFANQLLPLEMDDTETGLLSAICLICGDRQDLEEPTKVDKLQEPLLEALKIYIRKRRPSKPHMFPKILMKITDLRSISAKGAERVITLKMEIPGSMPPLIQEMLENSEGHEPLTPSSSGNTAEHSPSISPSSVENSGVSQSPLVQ
Source text: as §1
as §2, with “A detailed experimental procedure for holoreceptor transactivations has been described by Heyman et al. Cell 68, 397-406, (1992); Allegretto et al. J. Biol. Chem. 268, 26625-26633, and Mangelsdorf et al. The Retinoids: Biology, Chemistry and Medicine, pp 319-349, Raven Press Ltd., New York, which are expressly incorporated herein by reference.” left out

Row | SMILES | IC50 (P450RAI-1) [µM] | Kd (RARγ) [µM] | Kd (RARα) [µM] | Kd (RARβ) [µM]
1 | CC1(C)CCC(=O)c2ccc(C(=O)Oc3ccc(CC(=O)O)cc3)cc21 [Compound 20, 8,8-Dimethyl-5-oxo-5,6,7,8-tetrahydro-naphthalene-2-carboxylic Acid-4-(carboxymethyl)phenyl Ester] | > 10 | – | – | –
2 | CCN(Cc1ccc(C#Cc2ccc(C(=O)O)cc2)cc1C(C)C)C1CC1 [Compound 134, 4-{4-[(Cyclopropyl-ethyl-amino)-methyl]-3-isopropyly-phenylethynyl}-benzoic Acid] | 5 | – | – | –
3 | CC1(C)CC2(CC2)Oc2c(C3CC3)cc(C#Cc3ccc(C(=O)O)c(F)c3)cc21 [Compound 54, 4-[(8-Cyclopropyl-3,4-dihydro-4,4-dimethylspiro[2H-1-benzopyran-2,1′-cyclopropane]-6-yl)ethynyl]-2-fluoro-benzoic Acid] | 0.022 | – | – | –
4 | CC1(C)CC(C)(C)c2cc(C#Cc3ccc(C(=O)O)cc3)cc(C3CC3)c2O1 [Compound 34, 4-(8-Cyclopropyl-2,2,4,4-tetramethyl-chroman-6-yl-ethynyl)-benzoic Acid] | 0.13 | 0.0025 | 0.0615 | 0.015
5 | CC(C)OC1(c2ccc(C#Cc3ccc(CC(=O)O)cc3)cc2)CC1 [Compound 74, {4-[4-(1-Isopropoxycyclopropyl)-phenylethynyl]-phenyl}-acetic Acid] | 3.5 | > 10 | 11 | 14
6 | CC1(C)CCN(C2CC2)c2ccc(C#Cc3ccc(C(=O)O)cc3)cc21 [Compound 62, 4-(1-Cyclopropyl-4,4-dimethyl-1,2,3,4-tetrahydroquinolin-6-yl-ethynyl)-benzoic Acid] | > 10 | – | – | –
7 | O=C(O)c1ccc(C#Cc2ccc(C3(N(Cc4ccccc4)Cc4ccccc4)CC3)cc2)cc1 [Compound 114, 4-[4-(1-Dibenzylamino-cyclopropyl)-phenylethynyl]-benzoic Acid] | > 10 | > 10 | > 10 | –
8 | COc1c(C(C)(C)C)cc(C#Cc2ccc(CC(=O)O)cc2)cc1C(C)(C)C [Compound 143, [4-(3,5-Di-tert-butyl-4-methoxy-phenylethynyl)-phenyl]-acetic Acid] | 0.8 | – | – | –
9 | COc1c(C(C)(C)C)cc(C#Cc2ccc(CC(=O)O)c(F)c2)cc1C(C)(C)C [Compound 145, [4-(3,5-Di-tert-butyl-4-methoxy-phenylethynyl)-2-fluoro-phenyl]-acetic Acid] | 0.2 | – | – | –
10 | CCc1cc(C#Cc2ccc(CC(=O)O)cc2)cc2c1OC(C)(C)CC2(C)C [Compound 56, [4-(8-Ethyl-2,2,4,4-tetramethyl-chroman-6-yl-ethynyl)phenyl]acetic Acid] | 0.13 | – | – | –
11 | CC1(C)CC(C)(C)c2cc(C(=O)Oc3ccc(CC(=O)O)cc3)ccc2O1 [Compound 46, 1,2,2,4,4-Tetramethyl-chroman-6-carboxylic Acid 4-(carboxymethyl)phenyl Ester] | 2.2 | – | – | –
12 | CC1(C)CC2(CC2)Oc2c(C3CC3)cc(C(=O)Oc3cccc(CC(=O)O)c3)cc21 [Compound 60, Spiro[2H-1-benzopyran-2,1′-cyclopropane]-6-carboxylic Acid, 8-cyclopropyl-3,4-dihydro-4,4-dimethyl-, 3-(carboxymethyl)phenyl Ester] | 1.6 | – | – | –
13 | CCc1cc(C#Cc2ccc(CC(=O)O)cc2)ccc1C1(OC(C)C)CC1 [Compound 98, {4-[4-(1-Isopropoxycyclopropyl)-3-ethyl-phenylethynyl]-phenyl}-acetic Acid] | 0.8 | – | – | –
14 | Cc1cc(C#Cc2ccc(CC(=O)O)cc2)ccc1Cn1ccnc1 [Compound 121, [4-(4-Imidazol-1-yl-methyl-3-methyl-phenylethynyl)-phenyl]-acetic Acid] | – | > 100 | > 10 | –
15 | CC1(C)CCC(n2ccnc2)c2ccc(C#Cc3ccc(C(=O)O)cc3)cc21 (centres unmarked) [Compound 139] | 0.05 | – | – | –
16 | CC1(C)CC2(CC2)Oc2c(C3CC3)cc(C#Cc3ccc(C(=O)O)cc3)cc21 [Compound 52, Benzoic Acid, 4-[(8-cyclopropyl-3,4-dihydro-4,4-dimethylspiro[2H-1-benzopyran-2,1′-cyclopropane]-6-yl)ethynyl]-] | 0.05 | – | – | –
17 | CC1(C)CN(C2CC2)Cc2ccc(C#Cc3ccc(CC(=O)O)cc3)cc21 [Compound 24, [4-(2-Cyclopropyl-4,4-dimethyl-1,2,3,4-tetrahydro-isoquinoline-6-yl-ethynyl)-phenyl]-acetic Acid] | 3 | – | – | –
